Assay results reported in US20160278367A1, “Pesticidal Composition” (priority 2013, published 2016).

Tests used:
[1] = solution and stable suspension of citral; type: physicochemical
Excerpt: (§1) In one embodiment the terpene component includes one or more terpenes which contain oxygen. Citral, for example citral 95, is an oxygenated […], C10H16O CAS No. 5392-40-5 (3,7-dimethyl-2,6-octadien-1-a1). A stable suspension of citral can be formed up to about 2500 ppm. Citral can be made into a solution at up to about 500 ppm. A stable suspension of hollow glucan particles incorporating citral of 25 ppt citral can be made.
as §1, with “(3,7-dimethyl-2,6-octadien-1-a1) .” for “(3,7-dimethyl-2,6-octadien-1-a1).”

hematophagous arthropods = assay: terpenes fatal to hematophagous arthropods (test not described)

| Structure (SMILES) | citral can be made into a solution at up to ([1]; solution) | stable suspension of citral can be formed up to ([1]; suspension) | fatal to hematophagous arthropods (hematophagous arthropods) |
| --- | --- | --- | --- |
| CC(C)=CCCC(C)=CC=O (mixture of isomers) [Citral, 3,7-dimethyl-2,6-octadien-1-a1] | about 500 ppm | about 2500 ppm | – |
| CC(=O)/C=C/C1=C(C)CCCC1(C)C [beta-ionone] | – | – | fatal |
| C=C(C)C1CC=C(C)C(=O)C1 (stereo not drawn) [carvone] | – | – | fatal |
| C=CCc1ccc(O)c(OC)c1 [eugenol] | – | – | fatal |
| CC(C)=CCC/C(C)=C/CO [geraniol] | – | – | fatal |
| C=CC(C)(O)CCC=C(C)C (stereo not drawn) [linalool] | – | – | fatal |
| C=CC(=C)CCC=C(C)C [myrcene] | – | – | fatal |
| C=C(C)[C@H]1CC=C(C)CC1 [redistilled limonene, limonene] | – | – | fatal |
